Reference: ChEMBL document CHEMBL6083283, “Discovery of Dual CDK6/BRD4 Inhibitor Inducing Apoptosis and Increasing the Sensitivity of Ferroptosis in Triple-Negative Breast Cancer” (J Med Chem, 2024)

Columns and labels:
[1] = target: CDK9/cyclin T1 (Homo sapiens) (UniProt O60563+P50750); conditions: dose 500.0 nM
Description: Inhibition of CDK9/cyclinT1 (unknown origin) at 500 nM relative to control

[2] = target: T1, Bromodomain-containing protein 2 (Homo sapiens, UniProt P25440)
Description: Inhibition of BRD2 BD1 (unknown origin)

[3] = target: T1, Bromodomain-containing protein 2; remark: listed apart in the source
Description: Inhibition of BRD2 BD2 (unknown origin)

[4] = target: CDK6/cyclin D3 (Homo sapiens, UniProt Q00534); assay: Inhibition of full length recombinant human CDK6/CyclinD3 co-expressed by baculovirus in Sf9 insect cells using histone H1 as substrate by ADP-glo kinase assay
CDK6/cyclin D3, sequence (P30281 whole entry): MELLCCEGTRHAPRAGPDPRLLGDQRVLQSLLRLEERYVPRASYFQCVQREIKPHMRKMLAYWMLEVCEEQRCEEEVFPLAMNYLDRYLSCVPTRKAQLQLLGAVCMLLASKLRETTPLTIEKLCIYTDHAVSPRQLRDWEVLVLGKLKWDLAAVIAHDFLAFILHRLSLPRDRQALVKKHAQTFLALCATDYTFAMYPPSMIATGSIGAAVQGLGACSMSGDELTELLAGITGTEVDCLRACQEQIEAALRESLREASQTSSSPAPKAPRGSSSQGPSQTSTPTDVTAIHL
CDK6/cyclin D3, sequence (Q00534 whole entry): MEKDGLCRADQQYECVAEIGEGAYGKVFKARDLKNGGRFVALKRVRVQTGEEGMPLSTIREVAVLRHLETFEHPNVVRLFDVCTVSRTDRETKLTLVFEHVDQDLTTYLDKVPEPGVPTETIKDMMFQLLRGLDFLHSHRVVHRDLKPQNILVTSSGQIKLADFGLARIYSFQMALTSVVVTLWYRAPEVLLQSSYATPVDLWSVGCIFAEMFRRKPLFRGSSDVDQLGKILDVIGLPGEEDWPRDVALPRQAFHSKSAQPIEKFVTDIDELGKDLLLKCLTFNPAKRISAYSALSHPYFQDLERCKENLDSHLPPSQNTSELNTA

[5] = test system: MDA-MB-231; assay: Antitumor activity against human MDA-MB-231 cells xenografted in BALB/c nude mouse assessed as tumor growth inhibition at 50 mg/kg, ip administered for 21 days; conditions: MDA-MB-231, 504 h, read-out: TGI
[6] = test system: MDA-MB-231; assay: cells; conditions: Homo sapiens, MDA-MB-231, 72 h
Description: Antiproliferative activity against human MDA-MB-231 cells assessed as cell viability incubated for 72 hrs by MTT assay

[7] = in vitro; conditions: human, MCF-10A cells
Description: Antiproliferative activity against human MCF-10A cells assessed as cell viability incubated for 72 hrs by MTT assay

[8] = test system: BT-549; assay: cells; conditions: Homo sapiens, BT-549, 72 h
Description: Antiproliferative activity against human BT-549 cells assessed as cell viability incubated for 72 hrs by MTT assay

[9] = Antiproliferative activity against human MCF-10A cells assessed as cell viability incubated for 72 hrs in presence of Palbociclib by MTT assay; type: toxicity, cell-based
[10] = in vitro; conditions: human, liver microsomes
Description: Metabolic stability in human liver microsome assessed as intrinsic clearance

[11] = in vitro; conditions: human, liver microsomes; remark: listed apart in the source
[12] = test system: BT-549; assay: Antiproliferative activity against human BT-549 cells assessed as cell viability incubated for 72 hrs in presence of Palbociclib by MTT assay; type: functional, cell-based; conditions: BT-549, 72 h
[13] = test system: MDA-MB-231; assay: Antiproliferative activity against human MDA-MB-231 cells assessed as cell viability incubated for 72 hrs in presence of Palbociclib by MTT assay; type: functional, cell-based; conditions: MDA-MB-231, 72 h

T1 sequence (P25440 whole entry): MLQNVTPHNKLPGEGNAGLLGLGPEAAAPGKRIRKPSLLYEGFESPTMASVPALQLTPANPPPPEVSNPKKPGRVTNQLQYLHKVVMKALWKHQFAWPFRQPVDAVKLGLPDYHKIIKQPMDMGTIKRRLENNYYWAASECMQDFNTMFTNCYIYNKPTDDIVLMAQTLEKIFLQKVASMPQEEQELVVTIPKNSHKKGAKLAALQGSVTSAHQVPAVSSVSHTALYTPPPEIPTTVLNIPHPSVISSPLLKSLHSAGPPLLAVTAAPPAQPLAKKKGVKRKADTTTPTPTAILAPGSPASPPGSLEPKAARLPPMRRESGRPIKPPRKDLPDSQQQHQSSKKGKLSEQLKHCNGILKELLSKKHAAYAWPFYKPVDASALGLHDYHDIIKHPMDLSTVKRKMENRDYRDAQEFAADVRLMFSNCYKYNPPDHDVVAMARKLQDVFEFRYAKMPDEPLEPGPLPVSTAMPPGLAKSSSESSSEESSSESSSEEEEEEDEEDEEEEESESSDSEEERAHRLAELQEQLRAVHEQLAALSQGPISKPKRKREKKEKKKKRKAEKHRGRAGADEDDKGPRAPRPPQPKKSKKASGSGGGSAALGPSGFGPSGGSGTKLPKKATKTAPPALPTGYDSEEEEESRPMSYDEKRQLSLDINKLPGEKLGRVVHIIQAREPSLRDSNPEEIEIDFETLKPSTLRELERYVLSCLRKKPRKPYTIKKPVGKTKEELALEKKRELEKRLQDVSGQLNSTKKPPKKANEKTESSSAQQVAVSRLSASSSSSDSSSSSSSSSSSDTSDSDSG

SMILES | IC50 [4] [µM] | inhibition in vivo at 50 mg/kg [5] [%] | IC50 [6] [µM] | IC50 at 72 h [7] [µM] | IC50 [8] [µM] | also measured
COc1cc(OC)c2c(=O)[nH]c(-c3ccc(C(=O)N4CC5(CCN(c6ncc7c(C)cc(=O)n(C8CCCC8)c7n6)CC5)C4)cc3)nc2c1 | 0.036 |  |  |  |  | inhibition [1]: 43.4%; IC50 [2]: > 1 µM; IC50 [3]: > 1 µM
COc1cc(OC)c2c(=O)[nH]c(-c3ccc(C(=O)N4CCCC(CNc5ncc6c(C)cc(=O)n(C7CCCC7)c6n5)C4)cc3)nc2c1 (stereo not drawn) | 0.297 |  |  |  |  | 
CC(=O)c1c(C)c2cnc(Nc3ccc(N4CCNCC4)cn3)nc2n(C2CCCC2)c1=O [PALBOCICLIB] |  | 22 | 16.3 | > 20 | 15.3 | 
Cc1sc2c(c1C)C(c1ccc(Cl)cc1)=N[C@@H](CC(=O)OC(C)(C)C)c1nnc(C)n1-2 |  | 37.6 | 6.44 | > 20 | 5.06 | IC50 at 72 h [9]: > 20 µM; microsomal CLint [10]: 39.5 µL/min/mg; half-life [11]: 35.4 min; IC50 [12]: 1.05 µM; IC50 [13]: 1.72 µM
